# Laboratory results: patent US20210177803A1, “NEW PHARMACEUTICAL USE FOR THE TREATMENT OF HEART FAILURE” (Novartis AG, priority 2018, published 2021)
# Read-outs that look alike come from different tables or passages of the source.
# Experiments:
# NT-proBNP = system: NT-proBNP
# Experimental: (§1) The study rational and design is described in by Velazquez E J, et al. .in Am.
# (§2) The starting dose and all subsequent doses were selected to optimize the highest tolerated dose based on a systolic blood pressure (SBP) algorithm.
# (§3) Inclusion Criteria: • Patients ≥18 y of age with the capacity to provide written informed consent. • Currently hospitalized for a primary diagnosis of HF, including symptoms and signs of fluid overload. • Eligible patients will be randomized no earlier than 24 hours and up to ten days after presentation while still hospitalized as long as meet the following definition of stable status: • SBP≥100 mm Hg for the preceding 6 hours prior to randomization; no symptomatic hypotension • No increase (intensification) in i.v. diuretic dose within last 6 hours prior to randomization • No i.v. inotropic drugs for 24 hours prior to randomization • No i.v. vasodilators including nitrates within last 6 hours prior to randomization • Left ventricular EF 40% within the past 6 m (including current hospitalization) using echocardiography, multi gated acquisition scan (MUGA), CT scanning, MRI or ventricular angiography, provided no subsequent study documented an EF of >40% • Elevated NT-proBNP≥1600 pg/mL OR BNP≥400 pg/mL during current hospitalization.
# [1] = system: patients hospitalized for acute HFrEF; experiment: PIONEER-HF study: clinical outcomes; assay type: in vivo, human
# Experimental: as §1, §2, §3
# [2] = system: patients hospitalized for acute HFrEF
# Experimental: as §2, §3
# [3] = system: high-sensitivity cardiac troponin (hsTnT); settings: compared with enalapril, 4 weeks
# Experimental: (§4) Circulating high-sensitivity cardiac troponin (hsTn) and soluble ST2 (sST2) reflect myocardial stress in patients with heart failure (HF). Production of cyclic guanosine 3′5′ monophosphate (cGMP) in response to activation of natriuretic peptide receptors reduces cardiac afterload and preload.
# (§5) Ratios of geometric means (timepoint/baseline) were determined and compared as a ratio for sacubitril/valsartan vs. enalapril.
# urinary cGMP = settings: compared with enalapril, 1 week
# Experimental: as §4, §5
# [4] = system: ambulatory HF patients with an ejection fraction ≤40%; settings: compared with enalapril; cited from earlier work
# neprilysin = neprilysin (Homo sapiens, UniProt P08473); settings: 200 mg LCZ696 b.i.d.; cited from earlier work
# Chain of neprilysin (P08473 whole entry): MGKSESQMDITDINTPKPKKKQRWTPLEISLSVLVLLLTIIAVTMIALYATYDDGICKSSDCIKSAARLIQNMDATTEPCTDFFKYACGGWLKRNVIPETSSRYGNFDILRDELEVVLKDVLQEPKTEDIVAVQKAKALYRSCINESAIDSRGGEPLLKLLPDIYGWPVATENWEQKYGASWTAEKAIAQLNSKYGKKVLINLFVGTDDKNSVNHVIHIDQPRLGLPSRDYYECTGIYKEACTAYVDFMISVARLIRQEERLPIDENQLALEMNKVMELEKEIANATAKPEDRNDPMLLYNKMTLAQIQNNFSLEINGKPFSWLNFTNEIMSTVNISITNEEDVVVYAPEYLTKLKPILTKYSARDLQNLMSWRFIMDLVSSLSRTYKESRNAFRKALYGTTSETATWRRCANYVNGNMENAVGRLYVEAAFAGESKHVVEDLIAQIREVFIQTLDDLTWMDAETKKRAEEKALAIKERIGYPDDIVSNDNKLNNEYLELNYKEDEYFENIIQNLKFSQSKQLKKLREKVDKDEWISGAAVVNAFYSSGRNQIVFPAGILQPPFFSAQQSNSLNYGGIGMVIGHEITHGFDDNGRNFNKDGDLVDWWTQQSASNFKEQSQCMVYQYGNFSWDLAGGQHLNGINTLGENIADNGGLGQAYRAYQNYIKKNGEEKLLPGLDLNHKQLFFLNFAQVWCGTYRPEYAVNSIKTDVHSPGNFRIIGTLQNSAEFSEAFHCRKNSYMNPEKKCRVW
# [5] = 8 weeks, LCZ696 n = 440, enalapril n = 441
# [6] = compared with enalapril, 8-week study period
structure (smiles),measurement,setting,value
"CCCCC(=O)N(Cc1ccc(-c2ccccc2-c2nn[n-]n2)cc1)[C@H](C(=O)[O-])C(C)C.CCOC(=O)[C@H](C)C[C@@H](Cc1ccc(-c2ccccc2)cc1)NC(=O)CCC(=O)[O-].[Na+].[Na+].[Na+] [LCZ696, trisodium [3((1S,3R)-1-biphenyl-4-ylmethyl-3-ethoxycarbonyl-1-butylcarbamoyl) propionate-(S)-3′-methyl-2′-(pentanoyl{2″-(tetrazol-5-ylate)biphenyl-4′-ylmethyl}amino)butyrate]hemipentahydrate]",Ratio of time-averaged change in NT-proBNP from baseline to the geometric mean of weeks 4 and 8,NT-proBNP; LCZ696 vs. Enalapril,0.71
same,Ratio of change in NT-proBNP from baseline,"NT-proBNP; LCZ696 vs. enalapril, week 1",0.76
same,Additional HF drug,[1]; [5],75 (17.0) number (%)
same,"Composite (death, rehospitalization for HF, LVAD implantation, or listing for cardiac transplant)",[1]; [5],41 (9.3) number (%)
same,Death,[1]; [5],10 (2.3) number (%)
same,"Expanded composite (composite plus unplanned outpatient visits requiring IV diuretics, or increase >50% in diuretic dose)",[1]; [5],262 (59.5) number (%)
same,HF rehospitalization,[1]; [5],35 (8.0) number (%)
same,Increase in diuretic dose >50%,[1]; [5],242 (55.0) number (%)
same,LVAD implantation,[1]; [5],1 (0.2) number (%)
same,Listing for cardiac transplant,[1]; [5],0 (0.0) number (%)
same,Unplanned outpatient visits requiring intravenous diuretics,[1]; [5],2 (0.5) number (%)
same,"Additional HF drug, HR (95% CI)",[1]; LCZ696 vs. Enalapril,"0.89 (0.65, 1.22)"
same,"Death, HR (95% CI)",[1]; LCZ696 vs. Enalapril,"0.66 (0.30, 1.48)"
same,"Expanded composite, HR (95% CI)",[1]; LCZ696 vs. Enalapril,0.409
same,"HF rehospitalization, HR (95% CI)",[1]; LCZ696 vs. Enalapril,"0.56 (0.37, 0.84)"
same,"Increase in diuretic dose >50%, HR (95% CI)",[1]; LCZ696 vs. Enalapril,"0.84 (0.84, 1.21)"
same,"LVAD implantation, HR (95% CI)",[1]; LCZ696 vs. Enalapril,"0.99 (0.06, 15.97)"
same,"Unplanned outpatient visits requiring intravenous diuretics, HR (95% CI)",[1]; LCZ696 vs. Enalapril,"1.00 (0.14, 7.07)"
same,"Absolute risk reduction, clinical composite",[1]; [6],7.5%
same,"Relative risk reduction, clinical composite",[1]; [6],44.6%
same,Hyperkalemia,[2]; 8 weeks,11.6%
same,Symptomatic hypotension,[2]; 8 weeks,10.0%
same,Worsening renal function,[2]; 8 weeks,13.6%
same,"Angioedema, HR",[2]; LCZ696 vs. Enalapril,0.17
same,"Hyperkalemia, HR",[2]; LCZ696 vs. Enalapril,1.25
same,"Symptomatic hypotension, HR",[2]; LCZ696 vs. Enalapril,1.10
same,"Worsening renal function, HR",[2]; LCZ696 vs. Enalapril,0.93
same,Angioedema in patients who identified as black (in words),[2],no angioedema
same,Angioedema in patients who identified as black (in words),[2]; listed as sacubitril-valsartan,no cases
same,Angioedema events (number in words),[2]; blinded adjudication,one
same,Angioedema,"[2]; blinded adjudication, 8 weeks",0.2%
same,Patients in whom the maximum target dose had been achieved,[2]; by the week 8 study visit,56%
same,Study drug prematurely discontinued prior to 8 weeks,[2]; excluding discontinuation due to death,19.6%
same,Tolerability (in words),[2]; initiated after initial stabilization after an ADHF episode,well tolerated
same,Greater reduction in hsTnT,[3],16%
same,Serial urinary cGMP (in words),urinary cGMP,increased
same,Relative risk reduction in cardiovascular mortality and hospitalization for worsening HF,[4],20%
same,Share of maximal neprilysin inhibition delivered,neprilysin,approximately 90%
